Tests used:
[1] = Cell cytotoxicity assay (MTS), CC90 as reported in Table 1, cell line not stated; type: cell-based; settings: human, cell line not given
Method: Cell cytotoxicity assays. Each compound (serially diluted from 100 μM) was added to Huh7 (2×10^3 cells/well), HepG2 (2×10^3 cells/well), BxPC3 (2×10^3 cells/well), or CEM (5×10^3 cells/well) cells and allowed to incubate for 8 days at 37° C. A medium only control was used to determine the minimum absorbance value […]. At the end of the growth period, MTS dye from the CellTiter 96 Aqueous One Solution Cell Proliferation Assay kit (Promega) was added to each well and the plate was incubated for an additional 2 hours. The absorbance at 490 nm was read with a Victor3 plate reader (Perkin Elmer) using the medium only control wells as blanks. The 90% inhibition value (CC90) was determined by comparing the absorbance in wells containing cells and test compound to untreated cell control wells.

HCV Replicon 1b = experiment: HCV inhibition assay, HCV replicon 1b (Clone A or ET-lunet cells; RT-PCR or luciferase reporter); type: cell-based; settings: Hepatitis C virus, 96 h, HCV replicon 1b; 4 days incubation; read-out: Replicon 1b potency EC90
Method: HCV inhibition assay. Clone A or ET-lunet cells were seeded at a density of 1500 or 3000 cells per well in a 96-well plate, respectively. Test compounds serially diluted in culture medium without G418 were added to cells so that the final DMSO concentration was 0.5%. Plates were incubated at 37° C. in a 5% CO2 atmosphere for 4 days. Inhibition of HCV RNA replication was determined by real time PCR (RT-PCR) or by measuring the levels of luminescence expressed via the luciferase reporter gene encoded within the ET replicon. Briefly, for the RT-PCR assay, total RNA was extracted using the RNeasy-96 kit as recommended by the manufacturer (Qiagen, Valencia, Calif.), reversed transcribed into cDNA, and amplified using primer and probe mix for HCV 5′-NTR RNA and human ribosomal RNA (rRNA) in a one-step RT-PCR reaction as described previously (50). A relative quantification method was used to determine the extent of inhibition. The threshold cycle (Ct) of rRNA was subtracted from the Ct of HCV RNA (ΔCt). The average ΔCt of the DMSO cell controls was then subtracted from the ΔCt of the compound treated sample (ΔΔCt). Percent inhibition was determined by using the following equation: %=(1−(2^−ΔΔC^t))×100. For the luciferase-based replicon assay, luminescence was measured by using a Victor3 plate reader (Perkin-Elmer, Boston, Mass.) following the addition of Bright-Glo reagent as recommended by the manufacturer (Promega, Madison, Wis.). Percent inhibition of HCV replication was determined by comparing the change in luminescence of the drug treated wells versus the DMSO cell controls. EC50 and EC90 values, the concentrations at which 50% and 90% inhibition were achieved, were determined using the GraphPad Prism software (San Diego, Calif.).

Compound | CC90 at 8 days ([1]; MTS assay, 8 days incubation) | EC90 (HCV Replicon 1b) | CC90 at 8 days [1]
CSCCC1C(=O)N[C@@H](c2ccccc2)CN1C(=O)c1cc(-c2ccc(F)cc2)on1 (stereo in doubt) [Compound 458, (3R,6S)-4-(5-(4-fluorophenyl)isoxazole-3-carbonyl)-3-((methylthio)ethyl)-6-phenylpiperazin-2-one] | > 10 µM | 2.07 µM | –
CC(C)C[C@H]1C(=O)NC(c2ccccc2)N1C(=O)[C@H]1C[C@@H]1c1ccccc1 (stereo in doubt) [Compound 531, (2R,5S)-5-isobutyl-2-phenyl-1-((1S,2S)-2-phenylcyclopropanecarbonyl)imidazolidin-4-one] | > 10 µM | > 10 µM | –
CC(C)C[C@H]1C(=O)NC(c2ccccc2)N1C(=O)[C@H]1C[C@@H]1c1ccc(F)cc1 (stereo in doubt) [Compound 533, (2R,5S)-1-((1S,2S)-2-(4-fluorophenyl)cyclopropane-carbonyl)-5-isobutyl-2-phenyl-imidazolidin-4-one] | > 10 µM | > 10 µM | –
CC(C)C[C@H]1CN(C(=O)[C@@H]2C[C@H]2c2ccccc2)[C@@H](CC(C)C)C(=O)N1 [Compound 70] | – | 0.8 µM | > 10 µM
CC(C)C[C@H]1CN(C(=O)/C=C/c2ccc(Cl)cc2)[C@@H](CC(C)C)C(=O)N1 [Compound 72] | – | 2.5 µM | > 10 µM
CC(C)C[C@H]1CN(C(=O)/C=C/c2ccc(C(F)(F)F)cc2)[C@@H](CC(C)C)C(=O)N1 [Compound 73] | – | 3.34 µM | > 10 µM
CC(C)C[C@H]1CN(C(=O)/C=C/c2cccnc2)[C@@H](CC(C)C)C(=O)N1 [Compound 74] | – | > 10 µM | > 10 µM
C/C(=C\C(=O)N1C[C@H](CC(C)C)NC(=O)[C@@H]1CC(C)C)c1ccccc1 [Compound 75] | – | > 10 µM | > 10 µM
CC(C)C[C@H]1CN(C(=O)c2cc3ccccc3o2)[C@@H](CC(C)C)C(=O)N1 [Compound 76] | – | 9.18 µM | > 10 µM
CC(C)C[C@H]1CN(C(=O)/C=C/c2ccccc2)[C@@H](CC(C)C)C(=O)N1 [Compound 77] | – | 3.24 µM | > 10 µM
C/C(=C\c1ccccc1)C(=O)N1C[C@H](CC(C)C)NC(=O)[C@@H]1CC(C)C [Compound 78] | – | 9.93 µM | > 10 µM
Cc1ccc(/C=C/C(=O)N2C[C@H](CC(C)C)NC(=O)[C@@H]2CC(C)C)cc1 [Compound 79] | – | 5.29 µM | > 10 µM
CC(C)C[C@H]1CN(C(=O)/C=C/c2ccc(F)cc2)[C@@H](CC(C)C)C(=O)N1 [Compound 80] | – | 2.49 µM | > 10 µM
CC(C)C[C@H]1CN(C(=O)/C=C/c2ccc(Cl)c(Cl)c2)[C@@H](CC(C)C)C(=O)N1 [Compound 81] | – | 7.31 µM | > 10 µM
CC(C)C[C@H]1CN(C(=O)/C=C/c2ccc(F)c(F)c2)[C@@H](CC(C)C)C(=O)N1 [Compound 82] | – | 1.22 µM | > 10 µM
CC(C)C[C@H]1CN(C(=O)/C=C/c2cccc(F)c2)[C@@H](CC(C)C)C(=O)N1 [Compound 83] | – | 2.91 µM | > 10 µM
CC(C)C[C@H]1CN(C(=O)/C=C/c2cc(F)c(F)c(F)c2)[C@@H](CC(C)C)C(=O)N1 [Compound 84] | – | 2.64 µM | > 10 µM
CC(C)C[C@H]1CN(C(=O)/C=C/c2ccc(F)c(Cl)c2)[C@@H](CC(C)C)C(=O)N1 [Compound 85] | – | 8.65 µM | > 10 µM
CC(C)C[C@H]1CN(C(=O)/C=C/c2ccc(Cl)cc2F)[C@@H](CC(C)C)C(=O)N1 [Compound 86] | – | 0.59 µM | > 10 µM
CC(C)C[C@H]1CN(C(=O)/C=C/c2ccc(F)cc2F)[C@@H](CC(C)C)C(=O)N1 [Compound 87] | – | 0.57 µM | > 10 µM
Cc1cccc(C)c1NC(=O)CN1C[C@H](CC(C)C)NC(=O)[C@@H]1CC(C)C [Compound 88] | – | > 10 µM | > 10 µM

Compound | CC90 at 8 days ([1]; MTS assay, 8 days incubation) | EC90 (HCV Replicon 1b) | CC90 at 8 days [1]
CC(C)C[C@H]1CN(C(=O)c2ccc(Oc3ccccc3)cc2)[C@@H](CC(C)C)C(=O)N1 [Compound 89] | – | 6.88 µM | > 10 µM
CC(C)C[C@H]1CN(C(=O)/C=C/c2ccc3c(c2)OCO3)[C@@H](CC(C)C)C(=O)N1 [Compound 90] | – | 7.72 µM | > 10 µM
CC(C)C[C@H]1CN(C(=O)/C=C/c2ccc([N+](=O)[O-])cc2)[C@@H](CC(C)C)C(=O)N1 [Compound 91] | – | > 10 µM | > 10 µM
CC(C)C[C@H]1CN(C(=O)/C=C/c2ccc(S(C)(=O)=O)cc2)[C@@H](CC(C)C)C(=O)N1 [Compound 92] | – | > 10 µM | > 10 µM
CC(C)C[C@H]1CN(C(=O)/C=C/c2ccc(C(F)(F)F)cc2F)[C@@H](CC(C)C)C(=O)N1 [Compound 93] | – | 9.62 µM | > 10 µM
CC(C)C[C@H]1CN(C(=O)/C=C/c2ccc(-c3ccccc3)cc2)[C@@H](CC(C)C)C(=O)N1 [Compound 94] | – | 8.37 µM | > 10 µM
CC(C)C[C@H]1CN(C(=O)/C=C/c2cc(F)cc(F)c2)[C@@H](CC(C)C)C(=O)N1 [Compound 95] | – | 9.31 µM | > 10 µM
CCC[C@H]1CN(C(=O)/C=C/c2ccc(F)cc2F)[C@@H](CC(C)C)C(=O)N1 [Compound 96] | – | 1.11 µM | > 10 µM
CC(C)C[C@H]1CN(C(=O)c2ccc(-c3ccccc3)o2)[C@@H](CC(C)C)C(=O)N1 [Compound 97] | – | 7.28 µM | > 10 µM
CC(C)C[C@H]1CN(C(=O)c2csc(-c3ccccc3)n2)[C@@H](CC(C)C)C(=O)N1 [Compound 98] | – | 7.92 µM | > 10 µM
CC(C)C[C@H]1CN(C(=O)c2coc(-c3ccccc3)n2)[C@@H](CC(C)C)C(=O)N1 [Compound 99] | – | > 10 µM | > 10 µM
CC(C)C[C@H]1CN(C(=O)c2cc(-c3ccccc3)[nH]n2)[C@@H](CC(C)C)C(=O)N1 [Compound 100] | – | > 10 µM | > 10 µM
CC(C)C[C@H]1CN(C(=O)c2c[nH]c(-c3ccccc3)n2)[C@@H](CC(C)C)C(=O)N1 [Compound 101] | – | > 10 µM | > 10 µM
CC(C)C[C@H]1CN(C(=O)c2cn(-c3ccccc3)cn2)[C@@H](CC(C)C)C(=O)N1 [Compound 102] | – | > 10 µM | > 10 µM
CC(C)C[C@H]1CN(C(=O)c2cn(-c3ccc(F)cc3)cn2)[C@@H](CC(C)C)C(=O)N1 [Compound 103] | – | 8.64 µM | > 10 µM
CC(C)C[C@H]1CN(C(=O)c2cnn(-c3ccc(F)cc3)c2)[C@@H](CC(C)C)C(=O)N1 [Compound 104] | – | 4.74 µM | > 10 µM
CC(C)C[C@H]1CN(C(=O)c2cc(-c3ccc(Cl)cc3)ns2)[C@@H](CC(C)C)C(=O)N1 [Compound 105] | – | 1.49 µM | > 10 µM
CC(C)C[C@H]1CN(C(=O)c2cc(C3CC3)on2)[C@@H](CC(C)C)C(=O)N1 [Compound 106] | – | 8.77 µM | > 10 µM
CCc1cc(C(=O)N2C[C@H](CC(C)C)NC(=O)[C@@H]2CC(C)C)no1 [Compound 107] | – | 8.41 µM | > 10 µM
CC(C)C[C@H]1C(=O)N[C@@H](C2CCCC2)CN1C(=O)[C@@H]1C[C@H]1c1ccc(Br)cc1 [Compound 332, (3S,6S)-6-cyclopentyl-4-((1R,2R)-2-(4-bromophenyl)cyclopropanecarbonyl)-3-isobutylpiperazin-2-one] | – | 1.31 µM | –
